Measurements reported in the supplement of paper PMC10307832.

Experiments:
Assay in all cases: relative viability (nuclei count vs DMSO), 5 days (fraction); higher = more cells survive
KN-93 + Tozasertib = compound: CN(C/C=C/C1=CC=C(C=C1)Cl)CC2=CC=CC=C2N(CCO)S(=O)(=O)C3=CC=C(C=C3)OC [KN-93] + Cc1cc(Nc2cc(N3CCN(C)CC3)nc(Sc3ccc(NC(=O)C4CC4)cc3)n2)n[nH]1 [Tozasertib] (partner 0.1 µM)
Procedure, shortened: (§1)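 Lung cancer cell lines in 1536-well plates got either a single drug or a fixed anchor-drug dose together with five library-drug doses (not always all listed) in √10 steps, by pin tool, on the day after seeding. Nuclei were counted after 5 days, and relative viability is the treated-to-vehicle ratio of nuclei counts. Values are medians of duplicate plates.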

KN-93 + Pictilisib = compound: CN(C/C=C/C1=CC=C(C=C1)Cl)CC2=CC=CC=C2N(CCO)S(=O)(=O)C3=CC=C(C=C3)OC [KN-93] + CS(=O)(=O)N1CCN(Cc2cc3nc(-c4cccc5[nH]ncc45)nc(N4CCOCC4)c3s2)CC1 [Pictilisib] (partner 1 µM)
Procedure, shortened: as §1

KN-93 + Alpelisib = compound: CN(C/C=C/C1=CC=C(C=C1)Cl)CC2=CC=CC=C2N(CCO)S(=O)(=O)C3=CC=C(C=C3)OC [KN-93] + Cc1nc(NC(=O)N2CCC[C@H]2C(N)=O)sc1-c1ccnc(C(C)(C)C(F)(F)F)c1 [Alpelisib] (partner 2 µM)
Procedure, shortened: as §1

KN-93 + Phenformin = compound: CN(C/C=C/C1=CC=C(C=C1)Cl)CC2=CC=CC=C2N(CCO)S(=O)(=O)C3=CC=C(C=C3)OC [KN-93] + N=C(N)NC(=N)NCCc1ccccc1 [Phenformin] (partner 250 µM)
Procedure, shortened: as §1

KN-93 + Vorinostat = compound: CN(C/C=C/C1=CC=C(C=C1)Cl)CC2=CC=CC=C2N(CCO)S(=O)(=O)C3=CC=C(C=C3)OC [KN-93] + O=C(CCCCCCC(=O)Nc1ccccc1)NO [Vorinostat] (partner 1 µM)
Procedure, shortened: as §1

Cell Line	relative viability (KN-93 + Tozasertib; first compound 0.08 µM)	relative viability (KN-93 + Tozasertib; first compound 0.253 µM)	relative viability (KN-93 + Tozasertib; first compound 2.53 µM)	relative viability (KN-93 + Tozasertib; first compound 8 µM)	relative viability (KN-93 + Pictilisib; first compound 0.08 µM)	relative viability (KN-93 + Pictilisib; first compound 0.253 µM)	relative viability (KN-93 + Pictilisib; first compound 2.53 µM)	relative viability (KN-93 + Pictilisib; first compound 8 µM)	relative viability (KN-93 + Alpelisib; first compound 0.08 µM)	relative viability (KN-93 + Alpelisib; first compound 0.253 µM)	relative viability (KN-93 + Alpelisib; first compound 2.53 µM)	relative viability (KN-93 + Alpelisib; first compound 8 µM)	relative viability (KN-93 + Phenformin; first compound 0.08 µM)	relative viability (KN-93 + Phenformin; first compound 0.253 µM)	relative viability (KN-93 + Phenformin; first compound 2.53 µM)	relative viability (KN-93 + Phenformin; first compound 8 µM)	relative viability (KN-93 + Vorinostat; first compound 0.08 µM)	relative viability (KN-93 + Vorinostat; first compound 0.253 µM)	relative viability (KN-93 + Vorinostat; first compound 2.53 µM)	relative viability (KN-93 + Vorinostat; first compound 8 µM)
NCI-H23	0.327	0.359	0.439	0.267	0.414	0.559	0.58	0.446	0.592	0.702	1.01	0.596	0.705	0.889	0.88	0.609	0.596	0.626	0.543	0.258
NCI-H322M	0.505	0.502	0.524	0.489	0.496	0.423	0.531	0.51	0.873	1.06	0.836	0.686	0.753	0.746	0.838	0.604	0.917	0.836	0.826	0.782
NCI-H358	0.1	0.105	0.089	0.103	0.39	0.381	0.327	0.28	0.843	0.992	0.72	0.319	0.32	0.444	0.384	0.251	0.659	0.79	0.824	0.459
NCI-H441	0.639	0.806	0.553	0.435	0.356	0.53	0.591	0.3		1.18	0.772	0.341	0.828	1.06	0.921	0.779		1.06	0.864	0.498
NCI-H460	0.397	0.104	0.381	0.153	0.301	0.329	0.465	0.117	0.47	0.649	0.42	0.203	0.299	0.565	0.552	0.396	0.308	0.618	1.08	0.485
NCI-H520	0.455	0.447	0.459	0.382		0.32	0.297	0.26		1.38	1.05	0.763	0.732	0.769	0.842	0.451	0.619	0.906	0.831	0.58
NCI-H596	0.783	1.02	1.06	0.747	0.419	0.361	0.381	0.368	0.442	0.459	0.51	0.334	0.728	0.95	0.69	0.45	0.654	0.528	0.656	0.324
NCI-H647	0.31	0.299	0.0549	0.196	0.493	0.327	0.462	0.336	1.39	1.52	1.32	0.717	0.696	0.552	0.643	0.484	0.532	0.853	0.601	0.323
